Reference: patent publication US20260144252A1, “BROMINE- OR IODINE-PARA-SUBSTITUTED [(1,5-DIPHENYL-1H-1,2,4-TRIAZOL-3-YL)OXY]ACETIC ACID DERIVATIVES AND THEIR SALTS, AGENTS FOR PROTECTING USEFUL PLANTS OR CROP PLANTS COMPRISING THEM, METHODS FOR PRODUCING THEM AND THEIR USE AS SAFENERS” (Bayer Aktiengesellschaft, priority 2022, published 2026)

Columns and labels:
Type in all cases: in vivo
[1] = test system: summer barley (HORVS, cv. Quench); assay: Reduction of damage by mesosulfuron-methyl on summer barley (greenhouse, post-emergence safener test); set-up: key: 0: no reduction in damage (appearance corresponding to the herbicide control); 1: slight reduction in damage; 2: distinct reduction in damage; 3: significant reduction in damage; 4: complete reduction in damage (appearance corresponding to the untreated control); details: safener 100 g/ha, mesosulfuron-methyl 40 g/ha, visual, 12-13 days after application
Description: (§1) The seeds of the crop plants to be treated were laid out in soil in plastic pots (diameter ˜4 cm), covered with soil and grown in a greenhouse under good conditions for germination and growth. The trial plants were treated at the early leaf stage (BBCH10-BBCH12). In the course of this, the inventive compounds of the general formula (I) formulated in the form of wettable powders (WP) were sprayed onto the above-ground parts of the plants as an aqueous suspension with a water application rate corresponding to 800 l/ha with addition of wetting agent (Mero, 0.2%) in the specified dose. This was followed by the application of the herbicide. For this purpose, mesosulfuron-methyl, formulated in the form of water-dispersible granules (WG), was sprayed onto the above-ground parts of the plants in the form of an aqueous dispersion with a water application rate corresponding to 800 l/ha with addition of wetting agent (Biopower, 1 l/ha) in a dose of 40 g/ha. The dose of the herbicide was chosen here such that it causes average, visually clearly apparent damage (50-60%) compared to untreated crop plants at the evaluation time on a control group of crop plants without safener treatment that were included in the same trial. After application, the plants were cultivated under good growth conditions in a greenhouse. 12-13 days after application, the efficacy of the test compounds was assessed visually. For this purpose, the appearance of the plants treated with the test compound and herbicide was compared to the corresponding herbicide controls (without safener; with clearly visible damage) and the untreated controls (without damage). The damage-reducing effect of the test compounds was expressed here separately for 2 repeats in graded efficacy codes according to the following scheme: • 0: no reduction in damage (appearance corresponding to the herbicide control) • 1: slight reduction in damage • 2: distinct reduction in damage • 3: significant reduction in damage • 4: complete reduction in damage (appearance corresponding to the untreated control)

[2] = test system: summer wheat (TRZAS, cv. Triso); assay: Reduction of damage by mesosulfuron-methyl on summer wheat (greenhouse, post-emergence safener test); set-up: key: 0: no reduction in damage (appearance corresponding to the herbicide control); 1: slight reduction in damage; 2: distinct reduction in damage; 3: significant reduction in damage; 4: complete reduction in damage (appearance corresponding to the untreated control); details: mesosulfuron-methyl 40 g/ha, visual, 12-13 days after application
Description: as §1

[3] = test system: winter barley (HORVW; cv. Zzoom); assay: Comparative herbicide/safener combination test, damage by mesosulfuron-methyl + iodosulfuron-methyl-sodium; details: safener 20 g a.i./ha, damage without safener 55%
Description: (§2) The seeds of the crop plants to be treated were laid out in soil in wood fiber pots (diameter ˜7 cm), covered with soil and grown in a greenhouse under good conditions for germination and growth. The trial plants were treated at the early leaf stage (BBCH11-12). For this purpose, the herbicides and safeners used were formulated as wettable powders (WP), mixed in accordance with the dose specified in each case, and sprayed onto the above-ground parts of the plants as an aqueous suspension at a water application rate corresponding to 300 l/ha with addition of wetting agent (Biopower, 0.2%). The herbicidal effects were created using a mixture of mesosulfuron-methyl (40 g a.i./ha) and iodosulfuron-methyl-sodium (8 g a.i./ha). The total herbicide dose was chosen here such that it causes average, visually clearly apparent damage (min. 20%, max. 60%) compared to untreated crop plants at the evaluation time on a control group of crop plants without safener treatment that were included in the same trial. After application, the plants were cultivated under good growth conditions in a greenhouse. 20 days after application, the herbicide damage was assessed visually. The damage was assessed visually on a scale of 0-100% by comparison with untreated control plants, and averaged over 2 repeats per treatment.

[4] = test system: summer barley (HORVS; cv. Quench); assay: as above; details: safener 20 g a.i./ha, damage without safener 50%
Description: as §2

[5] = test system: durum wheat (TRZDU; cv. Joyau); assay: as above; details: safener 20 g a.i./ha, damage without safener 20%
Description: as §2

[6] = mesosulfuron-methyl 40 + iodosulfuron-methyl-sodium 8 g a.i./ha, 20 days after application

| Compound | Efficacy of the safener [Efficacy Code] [1] | Efficacy of the safener [Efficacy Code] ([2]; safener 100 g/ha) | Efficacy of the safener [Efficacy Code] ([2]; safener 500 g/ha) | Reduction in damage by safener (difference) [3] | Reduction in damage by safener (in %) [3] [%] | Damage to crop plant by herbicide treatment WITH SAFENER [3, 6] [%] | Reduction in damage by safener (difference) [4] | Reduction in damage by safener (in %) [4] [%] | Damage to crop plant by herbicide treatment WITH SAFENER [4, 6] [%] | Reduction in damage by safener (difference) [5] | Reduction in damage by safener (in %) [5] [%] | Damage to crop plant by herbicide treatment WITH SAFENER [5, 6] [%] |
| --- | --- | --- | --- | --- | --- | --- | --- | --- | --- | --- | --- | --- |
| CCOC(=O)COc1nc(-c2ccc(F)cc2F)n(-c2ccc(Br)cc2F)n1 [I.41-1] | 3 | 2 | 2 | – | – | – | – | – | – | – | – | – |
| COC(=O)CCOC(=O)COc1nc(-c2ccc(F)cc2F)n(-c2ccc(Br)cc2F)n1 [I.61-1] | 2 | – | – | – | – | – | – | – | – | – | – | – |
| O=C(COc1nc(-c2ccc(F)cc2F)n(-c2ccc(Br)cc2F)n1)OCC1CCOC1 (centres unmarked) [I.63-1] | 2 | – | – | – | – | – | – | – | – | – | – | – |
| COCCOC(=O)COc1nc(-c2ccc(F)cc2F)n(-c2ccc(Br)cc2F)n1 [I.67-1] | 3 | 2 | 3 | 45 | 82 | 10 | 50 | 100 | 0 | 20 | 100 | 0 |
